# Active and inactive are the calls of the source. The calls are words filed in the database; no cut-off is given here.
# Tests used:
# [1] = Cytotoxicity against African green monkey COS7 cells assessed as cell viability at 1 uM after 48 hrs by MTT assay relative to control; assay type: cell-based, COS-7; conditions: chlorocebus aethiops, read-out: Activity
# HeLa [2] = experiment: Cytotoxicity against human HeLa cells assessed as cell viability at 10 uM after 48 hrs by MTT assay relative to control; assay type: functional; conditions: read-out: Activity
# RAW264.7 [3] = experiment: Cytotoxicity against mouse RAW264.7 cells assessed as cell viability at 0.1 uM after 48 hrs by MTT assay relative to control; assay type: functional; conditions: RAW264.7, 48 h, read-out: Activity
# RAW264.7 [4] = experiment: Cytotoxicity against mouse RAW264.7 cells assessed as cell viability at 1 uM after 48 hrs by MTT assay relative to control; assay type: functional; conditions: RAW264.7, 48 h, read-out: Activity
# [5] = Cytotoxicity against African green monkey COS7 cells assessed as cell viability at 100 uM after 48 hrs by MTT assay relative to control; assay type: cell-based, COS-7; conditions: chlorocebus aethiops, read-out: Activity
# HeLa [6] = experiment: Cytotoxicity against human HeLa cells assessed as cell viability at 0.1 uM after 48 hrs by MTT assay relative to control; assay type: functional; conditions: read-out: Activity
# [7] = Cytotoxicity against African green monkey COS7 cells assessed as cell viability at 10 uM after 48 hrs by MTT assay relative to control; assay type: cell-based, COS-7; conditions: chlorocebus aethiops, read-out: Activity
# [8] = Antitumor activity against human U87MG cells xenografted in Balb/c nude mouse assessed as reduction in tumor volume at 7.5 mg/kg, po administered twice per week for 2 weeks measured after 4 weeks (reference value: 25 +/- 2.6 mm3); assay type: functional, U-87MG ATCC
# HeLa [9] = experiment: Cytotoxicity against human HeLa cells assessed as cell viability at 1 uM after 48 hrs by MTT assay relative to control; assay type: functional; conditions: read-out: Activity
# RAW264.7 [10] = experiment: Cytotoxicity against mouse RAW264.7 cells assessed as cell viability at 10 uM after 48 hrs by MTT assay relative to control; assay type: functional; conditions: RAW264.7, 48 h, read-out: Activity
# [11] = Cytotoxicity against African green monkey COS7 cells assessed as cell viability at 0.1 uM after 48 hrs by MTT assay relative to control; assay type: cell-based, COS-7; conditions: chlorocebus aethiops, read-out: Activity
# HeLa [12] = experiment: Cytotoxicity against human HeLa cells assessed as cell viability at 100 uM after 48 hrs by MTT assay relative to control; assay type: functional; conditions: read-out: Activity
# RAW264.7 [13] = experiment: Cytotoxicity against mouse RAW264.7 cells assessed as cell viability at 100 uM after 48 hrs by MTT assay relative to control; assay type: functional; conditions: RAW264.7, 48 h, read-out: Activity
# Spleen = experiment: Drug uptake in spleen of C57BL/6 mouse at 115.6 mg/kg, ip after 20 mins by fluorescence microscopy; assay type: ADME, organism-based; parameters: dose 115.6 mg/kg, route intraperitoneal; conditions: in vivo
# Brain = experiment: Drug uptake in brain of C57BL/6 mouse at 115.6 mg/kg, ip after 20 mins by fluorescence microscopy; assay type: ADME, organism-based; parameters: dose 115.6 mg/kg, route intraperitoneal; conditions: in vivo
# Heart = experiment: Drug uptake in heart muscle of C57BL/6 mouse at 115.6 mg/kg, ip after 20 mins by fluorescence microscopy; assay type: ADME, organism-based, Muscle tissue; parameters: dose 115.6 mg/kg, route intraperitoneal; conditions: in vivo
# Liver = experiment: Drug uptake in liver of C57BL/6 mouse at 115.6 mg/kg, ip after 20 mins by fluorescence microscopy; assay type: ADME, organism-based; parameters: dose 115.6 mg/kg, route intraperitoneal; conditions: in vivo
# Lung = experiment: Drug uptake in lung of C57BL/6 mouse at 115.6 mg/kg, ip after 20 mins by fluorescence microscopy; assay type: ADME, organism-based; parameters: dose 115.6 mg/kg, route intraperitoneal; conditions: in vivo
# Kidney = experiment: Drug uptake in kidney of C57BL/6 mouse at 115.6 mg/kg, ip after 20 mins by fluorescence microscopy; assay type: ADME, organism-based; parameters: dose 115.6 mg/kg, route intraperitoneal; conditions: in vivo
# [14] = Antitumor activity against human U87MG cells xenografted in Balb/c nude mouse orthotopic model assessed as reduction in tumor volume at 3.75 mg/kg, po administered twice per week for 2 weeks measured after 4 weeks (reference value: 25 +/- 2.6 mm3); assay type: functional, U-87MG ATCC
# U-87MG ATCC [15] = experiment: Antitumor activity against human U87MG cells xenografted in mouse assessed as tumor growth inhibition by measuring PCNA-positive cells at […] 7.5 mg/kg, po administered twice per week for 2 weeks measured after 4 weeks by immunohistochemical analysis relative to control; assay type: functional, organism-based
# U-87 MG = experiment: Induction of apoptosis in human U87MG cells xenografted in mouse at 3.75 to 7.5 mg/kg, po administered twice per week for 2 weeks measured after 4 weeks by TUNEL-staining based immunohistochemical analysis relative to control; assay type: functional, organism-based; conditions: U-87MG ATCC
# U-87MG ATCC [16] = experiment: Antitumor activity against human U87MG cells xenografted in mouse assessed as decrease in microvessel density in tumor bed by measuring CD31-positive cells at […] 7.5 mg/kg, po administered twice per week for 2 weeks measured after 4 weeks by immunohistochemical analysis relative to control; assay type: functional, organism-based
smiles,measurement,setting,value
CC(=O)O[C@H]1C(=O)[C@@]2(C)[C@H]([C@H](OC(=O)c3ccccc3)[C@]3(O)C[C@H](OC(=O)[C@H](O)[C@@H](NC(=O)c4ccccc4)c4ccccc4)C(C)=C1C3(C)C)[C@]1(OC(C)=O)CO[C@@H]1C[C@@H]2O [PACLITAXEL],"viability at 48 h, 1 µM",[1],66.5%
same,viability at 10 µM,HeLa [2],96.1%
same,viability at 0.1 µM,RAW264.7 [3],39.3%
same,viability at 1 µM,RAW264.7 [4],39.2%
same,"viability at 48 h, 100 µM",[5],41.5%
same,viability at 0.1 µM,HeLa [6],76.3%
same,"viability at 48 h, 10 µM",[7],71.9%
same,Activity,[8],19.4 mm3
same,viability at 1 µM,HeLa [9],86.3%
same,viability at 10 µM,RAW264.7 [10],49.9%
same,"viability at 48 h, 0.1 µM",[11],65.4%
same,viability at 100 µM,HeLa [12],56.5%
same,viability at 100 µM,RAW264.7 [13],13.3%
CC(=O)O[C@H]1C(=O)[C@@]2(C)[C@H]([C@H](OC(=O)c3ccccc3)[C@]3(O)C[C@H](OC(=O)[C@H](OC(=O)CCC(=O)OC[C@H](OC(=O)CCCCCN(CCCNC(=N)N)CCCNC(=N)N)[C@@H](OC(=O)CCCCCN(CCCNC(=N)N)CCCNC(=N)N)[C@H](OC(=O)CCCCCN(CCCNC(=N)N)CCCNC(=N)N)[C@@H](COC(=O)CCCCCNC(=S)Nc4ccc(-c5c6ccc(=O)cc-6oc6cc(O)ccc56)c(C(=O)O)c4)OC(=O)CCCCCN(CCCNC(=N)N)CCCNC(=N)N)[C@@H](NC(=O)c4ccccc4)c4ccccc4)C(C)=C1C3(C)C)[C@]1(OC(C)=O)CO[C@@H]1C[C@@H]2O.Cl,Drug uptake,Spleen,Active
same,Drug uptake,Brain,Active
same,Drug uptake,Heart,Active
same,Drug uptake,Liver,Active
same,Drug uptake,Lung,Active
same,Drug uptake,Kidney,Active
CC(=O)O[C@H]1C(=O)[C@@]2(C)[C@H]([C@H](OC(=O)c3ccccc3)[C@]3(O)C[C@H](OC(=O)[C@H](OC(=O)CCC(=O)OC[C@@H](OC(=O)CCCCCN(CCCNC(=N)N)CCCNC(=N)N)[C@@H](OC(=O)CCCCCN(CCCNC(=N)N)CCCNC(=N)N)[C@H](OC(=O)CCCCCN(CCCNC(=N)N)CCCNC(=N)N)[C@H](CO)OC(=O)CCCCCN(CCCNC(=N)N)CCCNC(=N)N)[C@@H](NC(=O)c4ccccc4)c4ccccc4)C(C)=C1C3(C)C)[C@]1(OC(C)=O)CO[C@@H]1C[C@@H]2O.Cl,Activity,[14],6.1 mm3
same,"viability at 48 h, 1 µM",[1],92.4%
same,viability at 10 µM,HeLa [2],83.1%
same,viability at 0.1 µM,RAW264.7 [3],117%
same,viability at 1 µM,RAW264.7 [4],111%
same,"viability at 48 h, 100 µM",[5],20.6%
same,viability at 0.1 µM,HeLa [6],87.4%
same,"viability at 48 h, 10 µM",[7],94.5%
same,Activity,[8],4.7 mm3
same,TGI,U-87MG ATCC [15],Active
same,Activity,U-87 MG,Active
same,viability at 1 µM,HeLa [9],78%
same,viability at 10 µM,RAW264.7 [10],53.4%
same,"viability at 48 h, 0.1 µM",[11],96.2%
same,viability at 100 µM,HeLa [12],3.8%
same,viability at 100 µM,RAW264.7 [13],2.6%
same,Activity,U-87MG ATCC [16],Active

# Reference: ChEMBL document CHEMBL3217738, “Preparation of blood-brain barrier-permeable paclitaxel-carrier conjugate and its chemotherapeutic activity in the mouse glioblastoma model” (Medchemcomm, 2011)
